We go through one substance from US10111901B2, “Beta-glucan in combination with anti-cancer agents affecting the tumor microenvironment” (Biothera, Inc., priority 2014, dated 2018).

Assay [1] relates to CD4 T cells. Put plainly: Mac-CD4 T cell proliferation assay (CFSE dilution, Division Index). Format: cell-based, human. The procedure:
CD14^+ monocytes from human whole blood were enriched using Ficoll gradient and magnetic bead separation. Enriched monocytes (5×10^5 cells per mL) were then cultured in either M1-polarizing (XVivo 10 media (Lonza Group) supplemented with 5% autologous serum and 100 ng/mL recombinant human granulocyte macrophage colony-stimulating factor (rhGM-CSF) (R&D Systems) or M2-polarizing (XVivo 10 media supplemented with 10% autologous serum and 50 ng/mL recombinant human macrophage colony-stimulating factor (rhM-CSF) (R&D Systems) conditions for 6 days. In experiments performed to evaluate the effect of β-glucan, whole blood was first incubated with vehicle (sodium citrate buffer) or 25 μg/mL soluble β-glucan for 2 hours at 37° C. and then the monocytes were isolated and differentiated. Morphology was checked before macrophages were harvested for phenotypic analysis. Culture medium of the day 6 macrophage culture (MCM) was collected, spun down to remove contaminated cell pellet and then frozen down for subsequent cytokine analysis by ELISA or used to setup a co-culture with CD3 & CD28-stimulated CD4 T cells (MCM-CD4 T) for evaluation of either surface markers or CD4 T cell proliferation. The macrophages were used to setup a co-culture with CD3 & CD28- or CD3 only-stimulated CD4 T cells (Mac-CD4 T) on day 6 for evaluation of either surface marker modulation or effect on CD4 T cell proliferation. For Mac-CD4 T cell proliferation study, M1 or M2 macrophages were cultured with CD3 & CD28- or CD3 only-stimulated, CFSE-labeled, autologous CD4 T cells at a 1:10 ratio. T cell proliferation was measured at the end of the experiment (day 9-day 11) by flow cytometry, and results are graphically shown as CFSE-dilution peaks. The assessment of CD3-only stimulated T cells was always done on day 11. Quantitative results were reported as the Division Index (the average number of cell divisions a population underwent) calculated for each of the triplicate wells in each of the culture conditions. Culture supernatants of Mac-CD4 T co-cultures were collected for subsequent cytokine analysis.
Next, vehicle- or β-glucan-treated M1 or M2 macrophages were cultured with CD3 and CD28-stimulated, carboxyfluorescein diacetate succinimidyl ester (CFSE)-labeled autologous CD4 T cells and T cell proliferation was measured at the end of the experiment by flow cytometry and results quantitatively reported as division index (the average number of cell divisions a population has undergone).
Next, the ability of M1/M2 macrophages derived from soluble β-glucan-treated monocytes from high binders and low binders to enhance CD3 & CD28-stimulated CD4 T cell proliferation was evaluated.
Evaluation of cell-to-cell contact was carried out as follows: vehicle- and β-glucan-treated M2 macrophages and CD3 & CD28− versus CD3 only-stimulated CD4 T cell co-cultures were utilized for measuring CD4 T cell proliferation and IFN-γ production.

The test system of assay [2] is CD4 T cells. In words: Mac-CD4 T co-culture surface marker modulation on T cells. Type of assay: cell-based, human. As to the method: For evaluation of Mac-CD4 T cell surface marker modulation, M2 macrophages were co-cultured with T cells as described above and cells were harvested on day 8, day 9 and day 10 to perform surface receptor staining on both M2 macrophages and T cells.
Changes in surface marker expression on both macrophages and CD3 & CD28-stimulated T cells were also measured. Vehicle- and β-glucan-treated M2 macrophages and CD T cells from the co-cultures were evaluated by flow cytometry for the modulation of co-stimulatory or co-inhibitory molecules. FIG. 8C and Table 9 are representative results from 2 different experiments.

Assay [3] relates to CD4 and CD8 T cells. In words: T cell proliferation and activation of PBMCs cultured in plasma from treated whole blood. Type of assay: cell-based, human. As to the method: To obtain plasma, whole blood was treated for 6 hours with 25 μg/mL β-glucan or vehicle, spun down and the plasma removed. 50,000 autologous CFSE-labeled PBMCs were cultured in the treated plasma for 3 days in the presence of 50,000 T cell activating CD3/28 beads (DYNABEADS Human T-Activator CD3/CD28 for T Cell Expansion and Activation). At the end of the culture, PBMCs were stained with CD4 and CD8 and T cell proliferation was measured by CFSE dilution.
Next, to show the effect of soluble β-glucan on CD4 and CD8 cell activation, the T cell proliferation assay described above was again carried out. At day 3, however, the cells were stained for markers of activation including Granzyme B production and CD25 upregulation.
To determine whether the enhancement of T cell proliferation by β-glucan is direct or indirect, T cell proliferation assays were carried out as described above except the plasma from untreated (vehicle) whole blood was then either treated with β-glucan or vehicle prior to adding to autologous PBMCs. CFSE dilution was quantitated by Division Index using FLOWJO software and plotted as fold change over vehicle control. The results shown in FIG. 5C indicate that β-glucan's enhanced effect is due to indirect mechanisms.

In assay [4] the test system is monocytes. In words: β-glucan binding to monocytes in whole blood, serum cross-over. Format: cell-based, human. As to the method: To test this, M2 macrophages were prepared as described above with a few modifications. The whole blood of a low binder was spun down to remove the plasma and then the cells were reconstituted with serum obtained from a high binder. The reconstituted blood was treated with vehicle or β-glucan (25 μg/mL) for 2 hours at 37° C. The monocytes were evaluated for binding by using anti-β-glucan specific monoclonal antibody and subsequent flow cytometry.

In assay [5] the test system is tumor cell lines, including NSCLC, breast, pancreatic, colon, and B cell lymphoma. In words: PD-L1 expression on tumor cell lines incubated with supernatant of M2 macrophage/MoDC and T cell co-culture. Format: cell-based. The note with it: supernatants of proliferation assays, 48 hours. The procedure:
M2 macrophages and MoDC were prepared as described above. The macrophages and the MoDC were subsequently used in T cell proliferation assays as described previously. The supernatants from these proliferation assays were harvested and incubated with various tumor cell lines, including NSCLC, breast, pancreatic, colon, and B cell lymphoma. The expression of PD-L1 on these tumor cell lines were evaluated post 48 hours by flow cytometry. Shown in FIG. 15 are representative results from 3 different experiments.

Setting [6] is: T cells co-cultured with β-glucan-treated M2 macrophages relative to vehicle-treated.

Take “β(1,6)-[poly-(1,3)-D-glucopyranosyl]-poly-β(1,3)-D-glucopyranose [β-glucan]”: the “CD4 T cell proliferation” value is reported as “maintained the ability to enhance CD4 T cell proliferation” in assay [1] (M2 macrophages cultured in TCM and M2a macrophages cultured in IL-4, vs vehicle-treated); “enhance CD4 T cell proliferation” in assay [1] (β-glucan-treated M2 macrophages with CD3 and CD28-stimulated CD4 T cells, FIG. 2C); “significantly higher ability to enhance” in assay [1] (β-glucan-treated M2 macrophages, absence of exogenous CD28 antibody (CD3 only)). The “CD3 & CD28-stimulated CD4 T cell proliferation” value was “no differences” in assay [1] (β-glucan-treated M1 macrophages, high binders or low binders); “significantly higher ability to enhance” in assay [1] (β-glucan-treated M2 macrophages vs vehicle-treated, high binders); “no enhanced proliferation” in assay [1] (β-glucan-treated M2 macrophages, low binders). Moreover, the “Change in MFI on T cells: 4-1BB” value in assay [2] (setting [6]) is “No change”. For the same substance, the “Change in MFI on T cells: CD28” value in assay [2] (setting [6]) is “No change”. Moreover, in assay [2] (setting [6]), the “Change in MFI on T cells: CD40L” value is on record as “No change”. Besides, in assay [2] (setting [6]), the “Change in MFI on T cells: CTLA-4” value is reported as “No change”. In assay [2] (T cells co-cultured with β-glucan-treated M2 macrophages relative to vehicle-treated (day 9)), the “Change in MFI on T cells: PD1 (CD279)” value is on record as “Increase”. Moreover, the “CD4 and CD8 proliferation (CFSE dilution)” value in assay [3] (plasma from whole blood treated 6 hours with 25 μg/mL β-glucan, vs vehicle) is given as “significant enhancement”. Moreover, in assay [3] (β-glucan-treated plasma, day 3), the “CD4 and CD8 cell activation (Granzyme B production, CD25 upregulation)” value is “enhances CD4 and CD8 cell activation”. Moreover, the “binding of β-glucan to monocytes” value is “significantly higher binding” in assay [4] (low binder's whole blood with high binder's serum containing higher levels of ABA) and “did not bind” in assay [4] (whole blood of a low binder). Further, in assay [5], the “PD-L1 expression on the tumor cell lines” value was “enhances PD-L1 expression”.
